From patent US20140031278A1, “Novel Glucagon Analogues” (NOVO NORDISK A/S, priority 2011, published 2014)
*1 amine or outer side, *2 acyl side, *3 side chain or, on linkers, in order; H or OH if unused. Where a SMILES comes first, the peptide text is derived from it. Side-chain parts run from the residue outwards. [ ]: non-standard residue; d: D form. γGlu = O=C(O)[C@H](CCC(=O)[*:2])N[*:1]; Aib = CC(C)(N)C(=O)O

Legend:
[1] = ThT fibrillation assay for physical stability (lag time, recovery); type: physicochemical; conditions: absence of increased ThT fluorescence noted as lag time of 45 hours
From the text: This has traditionally been measured by visual inspection of the sample. However, that kind of measurement is very subjective and depending on the observer. Therefore, the application of a small molecule indicator probe is much more advantageous. […] Enzymol.
Here, F is the ThT fluorescence at the time t.
The lag-time corresponds to the interval in which the critical mass of nucleus is built up and the apparent rate constant is the rate with which the fibril itself is formed.
Samples were prepared freshly before each assay. […] The pH of the sample was adjusted to the desired value using appropriate amounts of concentrated NaOH and HCl.
The plate was sealed with Scotch Pad (Qiagen).
Each run was initiated by incubating the plate at the assay temperature for 10 min. The plate was measured every 20 minutes for a desired period of time. Between each measurement, the plate was shaken and heated as described.
The supernatant was filtered through a 0.22 μm filter and an aliquot was transferred to a HPLC vial.
The data set may be fitted to Eq. (1).

glucagon receptor = molecular target: T1, glucagon receptor (Homo sapiens, UniProt P47871); assay: Assay (I) Glucagon activity (cAMP biosensor, FLIPR); type: cell-based; conditions: HEK-293 cells with cloned glucagon receptor and cAMP biosensor; end point after 6 minutes
T1 construct: expressed in transfected cells
T1 sequence (P47871 26-477): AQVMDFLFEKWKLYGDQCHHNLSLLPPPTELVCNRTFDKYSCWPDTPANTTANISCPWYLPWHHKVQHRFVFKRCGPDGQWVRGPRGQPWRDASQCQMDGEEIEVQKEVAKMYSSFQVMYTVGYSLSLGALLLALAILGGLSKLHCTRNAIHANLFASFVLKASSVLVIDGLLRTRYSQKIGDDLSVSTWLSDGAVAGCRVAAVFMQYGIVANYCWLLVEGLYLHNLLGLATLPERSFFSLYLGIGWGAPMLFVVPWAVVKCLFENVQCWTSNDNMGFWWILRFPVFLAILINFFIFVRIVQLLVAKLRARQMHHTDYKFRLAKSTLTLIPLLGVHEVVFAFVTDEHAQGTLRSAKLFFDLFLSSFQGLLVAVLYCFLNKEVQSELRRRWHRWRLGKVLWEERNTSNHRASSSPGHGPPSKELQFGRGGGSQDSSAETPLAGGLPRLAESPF
Outline: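 HEK-293 cells expressing glucagon receptor with membrane cAMP biosensor (ACTOne), calcium-dye loaded with probenecid and a PDE inhibitor.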

SMILES: CC(=O)N[C@@H](CCC(=O)N[C@@H](CCC(=O)N[C@@H](CCC(=O)N[C@@H](CCC(=O)NCCCC[C@H](NC(=O)[C@@H](NC(=O)[C@H](Cc1ccccc1)NC(=O)[C@H](CCC(=O)O)NC(=O)[C@H](C)NC(=O)[C@H](C)NC(=O)[C@H](CCCNC(=N)N)NC(=O)[C@H](CCCNC(=N)N)NC(=O)[C@@H](NC(=O)[C@H](CC(=O)O)NC(=O)[C@H](CC(C)C)NC(=O)[C@H](Cc1ccc(O)cc1)NC(=O)[C@H](CCCCN)NC(=O)[C@H](CO)NC(=O)[C@H](Cc1ccc(O)cc1)NC(=O)[C@H](CC(=O)O)NC(=O)[C@H](CO)NC(=O)[C@@H](NC(=O)[C@H](Cc1ccccc1)NC(=O)[C@@H](NC(=O)CNC(=O)[C@H](Cc1c[nH]cn1)NC(=O)C(C)(C)NC(=O)[C@@H](N)Cc1c[nH]cn1)[C@@H](C)O)[C@@H](C)O)C(C)C)C(C)C)C(=O)N[C@@H](Cc1c[nH]c2ccccc12)C(=O)N[C@@H](CC(C)C)C(=O)N[C@@H](CC(C)C)C(=O)N[C@@H](CO)C(=O)N[C@H](C(=O)O)[C@@H](C)O)C(=O)O)C(=O)O)C(=O)O)C(=O)O [Example 48, N^ε24-[(4S)-4-[[(4S)-4-[[(4S)-4-[[(4S)-4-acetamido-4-carboxybutanoyl]amino]-4-carboxybutanoyl]amino]-4-carboxybutanoyl]amino]-4-carboxybutanoyl]-[Aib^2,His^3,Val^16,Ala^20,Glu^21,Lys^24,Leu^27,Ser^28]-Glucagon] (H-H[Aib]HGTFTSDYSKYLDVRRAAEFVK([γGlu-γGlu-γGlu-γGlu-Ac])WLLST-OH)
- ThT assay [Lag time] [1]: 14 h
- EC50 (glucagon receptor): 5 pM
